According to paper PMC13439108, “An antibody–drug conjugate active against antibiotic-resistant Neisseria gonorrhoeae” (Proceedings of the National Academy of Sciences of the …, 2026):
Converted amounts (≈) assume the structure as drawn. Like-named read-outs stand apart in the source and are kept apart here. Where a SMILES comes first, the peptide text is derived from it. [ ]: non-standard residue; d: D form. The star is where a group is joined. d(aIle) = CC[C@H](C)[C@@H](N)C(=O)O; dDab = NCC[C@@H](N)C(=O)O; Octanoyl = CCCCCCCC(=O)*; Dab = NCC[C@H](N)C(=O)O; AEEA = NCCOCCOCC(=O)O

How the values were obtained:
human erythrocytes = experiment: Hemolysis of human erythrocytes; type: cell-based; conditions: concentration of peptide or ADC that lyses 50% of erythrocytes; washed human blood 0.5%, 37°C, 1 hr, OD415; melittin 2.5 µM = 100%, PBS = 0%; n = 3
Experimental: For hemolysis, whole human blood (1 ml; K2EDTA; Cambridge Bioscience) was washed in PBS then 0.5% added to an equal volume of peptides or ADCs in 96-well V-bottomed polypropylene plates and incubated at 37°C for 1 hr. Cells were pelleted at 1,000 × g for 10 min and the absorbance at OD415 measured. Positive (melittin, 2.5 µM, Merck Life Science) and negative (PBS) controls were normalised as 100 and 0% hemolysis, respectively. […]

[1] = tested on: N. gonorrhoeae G97687 (MDR isolate); conditions: G97687, MDR isolate resistant to ESCs and azithromycin, microdilution in FB, 24 hr, 37°C, 5% CO2
Experimental: (§1) Determination of Oct-TriA1 Minimum Inhibitory Concentration (MIC)
(§2) N. gonorrhoeae was resuspended in PBS to an ODA600 1.0, and ̴5 × 10^4 CFU added to wells of a microdilution plate containing dilutions of antimicrobials in FB. Plates were incubated for 24 hr at […]
(§3) 37°C, in 5% CO2 then 10 μl aliquots plated onto GCB agar. The MIC was defined as the lowest concentration of an antimicrobial that prevented bacterial growth. […]
(§4) Peptide concentration in ADC preparations
(§5) Peptide concentrations for ADCs were calculated from the antibody concentration, the drug-to-antibody ratio (DAR), and the peptide molecular weight using the following formula:
(§6) Conc. peptide (µg/mL) = Conc. ADC (µg/mL) × DAR x MWpeptide (Da) […]
(§7) Where Conc. ADC is the ADC/ mAb concentration, MWADC is the mAb molecular weight (150 kDa), MWpeptide is the peptide molecular weight and DAR is the average number of peptides per conjugate.
(§8) This formula was used to convert ADC concentrations to peptide concentrations for all assays. […]

HK-2 cells [2] = experiment: LDH release cytotoxicity; type: cell-based, human; conditions: n = 3; for LDH (EC50) 4 h: 2 × 10^4 cells/well, LDH release OD490, 4 h
Experimental: HK-2 cells (CRL-2190™, Americab Type Culutre Collection (ATCC)), a proximal renal tubule cell(7), and End1/E6E7 (CRL-2615™, ATCC) upper cervical epithelial cells(8) were cultured in Keratinocyte Serum Free Medium (Invitrogen, Life Technologies Ltd.) with human recombinant EGF (5 ng ml-1) and bovine pituitary extract (0.05 mg ml−1) at 37°C in 5% CO2. Cells were seeded in 96-well plates (Corning, Polystyrene) at a density of 2 × 10^4 cells/well 24 hr prior; Triton-X-100 (0.1%) and Digitonin (30 μg ml−1) were used as controls. Lactate dehydrogenase (LDH) release was measured using the Biovision kit; the OD490 was assessed in a SpectraMax M5 plate reader. […]

HK-2 cells [3] = experiment: MTT cell viability; type: cell-based, human; conditions: n = 3; for MTT (EC50) 4 h: MTT reduction OD570, 4 h
Experimental: HK-2 cells (CRL-2190™, Americab Type Culutre Collection (ATCC)), a proximal renal tubule cell(7), and End1/E6E7 (CRL-2615™, ATCC) upper cervical epithelial cells(8) were cultured in Keratinocyte Serum Free Medium (Invitrogen, Life Technologies Ltd.) with human recombinant EGF (5 ng ml-1) and bovine pituitary extract (0.05 mg ml−1) at 37°C in 5% CO2. […]
Cell viability was assessed by 3-(4,5-dimethylthiazol-2-yl)-2,5-diphenyl-2H-tetrazolium bromide (MTT) assay(9); 200 µl fresh cell media and 250 µg of MTT was added to cells. Plates were Incubated at 37 °C, 5% CO2 for 3 hr then 200 µl of DMSO was added to wells with 25 µl glycine buffer (0.1 M glycine, 0.1 M NaCl pH 10.5) and shaken at 1000 r.p.m. for 10 min. Absorbance was read at OD570 nm. Cell viability was calculated as (sample absorbance – cell free blank/media control absorbance) x100.

N. gonorrhoeae WHO M = conditions: microdilution in FB, ~5 × 10^4 CFU, 24 hr, 37°C, 5% CO2
Experimental: (§9) columns (ThermoFisher scientific). Activated mAb was added to 0.9 mg of Oct-TriA1 analogues (synthesised by ISCA Biochemicals, UK) and incubated at room temperature for 60 min. ADCs were dialysed using slide-A-Lyzer cassette (20K MWCO, ThermoFisher scientific) into PBS overnight at 4 °C […]
(§10) MALDI-TOF MS analysis for determination of intact mass mAbs or ADCs with a concentration of 1 mg/mL were acidified with 1% trifluoroacetic acid and mixed with Super DHB matrix, 1 μl was spotted onto an MTP Anchorchip 600/384. For every mAb, three sample spots were prepared from the same solution using three protocols advised by the manufacturer. MALDI-TOF measurements were performed on a Microflex LRF mass spectrometer, equipped with a 60Hz nitrogen laser at 337nm. Number of peptides conjugated was calculated using the MALDI-TOF molecular weights (MW) [MW = M+] of each ADC, the unconjugated antibody (mAb), and the molecular weights of Oct-TriA1 analogues using the following equation.
(§11) Number of peptides = MW ADC − MW mAb […]
as §1, §2, §3, §4, §5, §6, §7, §8

N. gonorrhoeae WHO N = conditions: microdilution in FB, ~5 × 10^4 CFU, 24 hr, 37°C, 5% CO2
Experimental: as §9, §10, §11, §1, §2, §3, §4, §5, §6, §7, §8

N. gonorrhoeae WHO L = conditions: microdilution in FB, ~5 × 10^4 CFU, 24 hr, 37°C, 5% CO2
Experimental: as §9, §10, §11, §1, §2, §3, §4, §5, §6, §7, §8

N. gonorrhoeae WHO P = conditions: microdilution in FB, ~5 × 10^4 CFU, 24 hr, 37°C, 5% CO2
Experimental: as §9, §10, §11, §1, §2, §3, §4, §5, §6, §7, §8

[4] = tested on: N. gonorrhoeae FA1090ΔIgAP; conditions: microdilution in FB, ~5 × 10^4 CFU, 24 hr, 37°C, 5% CO2
Experimental: as §9, §10, §11, §1, §2, §3, §4, §5, §6, §7, §8

[5] = tested on: N. gonorrhoeae FA1090ΔmtrE; conditions: microdilution in FB, ~5 × 10^4 CFU, 24 hr, 37°C, 5% CO2
Experimental: as §9, §10, §11, §1, §2, §3, §4, §5, §6, §7, §8

N. gonorrhoeae WHO F = conditions: microdilution in FB, ~5 × 10^4 CFU, 24 hr, 37°C, 5% CO2, lowest concentration preventing growth
Experimental: as §9, §10, §11, §1, §2, §3, §4, §5, §6, §7, §8

N. gonorrhoeae WHO G = conditions: microdilution in FB, ~5 × 10^4 CFU, 24 hr, 37°C, 5% CO2
Experimental: as §9, §10, §11, §1, §2, §3, §4, §5, §6, §7, §8

N. gonorrhoeae WHO K = conditions: microdilution in FB, ~5 × 10^4 CFU, 24 hr, 37°C, 5% CO2
Experimental: as §9, §10, §11, §1, §2, §3, §4, §5, §6, §7, §8

N. gonorrhoeae MS11 = conditions: microdilution in FB, ~5 × 10^4 CFU, 24 hr, 37°C, 5% CO2
Experimental: as §9, §10, §11, §1, §2, §3, §4, §5, §6, §7, §8

N. gonorrhoeae FA1090 [6] = conditions: microdilution in FB, ~5 × 10^4 CFU, 24 hr, 37°C, 5% CO2
Experimental: as §9, §10, §11, §1, §2, §3, §4, §5, §6, §7, §8

N. gonorrhoeae MS11ΔIgAP = conditions: microdilution in FB, ~5 × 10^4 CFU, 24 hr, 37°C, 5% CO2
Experimental: as §9, §10, §11, §1, §2, §3, §4, §5, §6, §7, §8

N. gonorrhoeae WHO O = conditions: microdilution in FB, ~5 × 10^4 CFU, 24 hr, 37°C, 5% CO2
Experimental: as §9, §10, §11, §1, §2, §3, §4, §5, §6, §7, §8

N. gonorrhoeae MS11ΔmtrE = conditions: microdilution in FB, ~5 × 10^4 CFU, 24 hr, 37°C, 5% CO2
Experimental: as §9, §10, §11, §1, §2, §3, §4, §5, §6, §7, §8

N. gonorrhoeae FA1090 [7] = experiment: microbe, parasite or virus in culture; conditions: Neisseria gonorrhoeae
Experimental: 37°C, in 5% CO2 then 10 μl aliquots plated onto GCB agar. The MIC was defined as the lowest concentration of an antimicrobial that prevented bacterial growth.
Determination of N. gonorrhoeae resistance to Oct-TriA1
Single colonies of N. gonorrhoeae FA1090 were inoculated into 2 mL of FB media supplemented with 1% Vitox (Oxoid) and grown overnight. After 24 hours, 240 µl of a 1/ 5,000 dilution of FA1090 in 2x FB was added to a 48-well plate containing 2-fold dilutions of either Oct-TriA1-c (final concentration, 12.5 µg/ml to 0.2 µg/ml) or ciprofloxacin (final concentration, 16.4 to 0.001 µg/ml) in a total volume of 480
µl. Plates were incubated at 37 °C, 5% CO2 with shaking (180 rpm). After 24 hours, ODA600 of each well […]
to fresh media containing all concentrations of antimicrobials for a total of 35 days. […]

## CCCCCCCC(=O)N[C@@H](C(=O)N[C@H](CCN)C(=O)NCC(=O)N[C@H](CO)C(=O)N[C@H](Cc1c[nH]c2ccccc12)C(=O)N[C@@H](CO)C(=O)N[C@@H](CCN)C(=O)N[C@H](CCN)C(=O)N[C@@H](Cc1ccccc1)C(=O)N[C@@H](CCC(=O)O)C(=O)N[C@H](C(=O)N[C@@H](C(=O)N[C@@H](C)C(=O)O)[C@@H](C)CC)C(C)C)C(C)C [Oct-TriA1, reference compound]
Human erythrocytes
  Hemolysis (HC50): 39.4 µg/mL
[1]
  MIC: 0.2 µg/mL (≈ 0.132 µM)
[1]; listed as Oct-Tri1
  MIC: 0.78 µg/mL (≈ 0.513 µM)
HK-2 cells [2]
  LDH (EC50) 4 h: 23.19 µg/mL
HK-2 cells [2]; LDH release OD490, 24 h
  LDH (EC50) 24 h: 14.14 µg/mL
HK-2 cells [2]; LDH release OD490, 48 h
  LDH (EC50) 48 h: <0.1 µg/mL
HK-2 cells [3]
  MTT (EC50) 4 h: 21.15 µg/mL
HK-2 cells [3]; MTT reduction OD570, 24 h
  MTT (EC50) 24 h: 7.93 µg/mL
HK-2 cells [3]; MTT reduction OD570, 48 h
  MTT (EC50) 48 h: 8.07 µg/mL
N. gonorrhoeae WHO M
  MIC: 0.39 µg/mL (≈ 0.256 µM)
N. gonorrhoeae WHO N
  MIC: 0.39 µg/mL (≈ 0.256 µM)
N. gonorrhoeae WHO L
  MIC: 0.2 µg/mL (≈ 0.132 µM)
N. gonorrhoeae WHO P
  MIC: 0.39 µg/mL (≈ 0.256 µM)
[4]
  MIC: 0.1 µg/mL (≈ 0.0658 µM)
[5]
  MIC: 0.1 µg/mL (≈ 0.0658 µM)
N. gonorrhoeae WHO F
  MIC: 0.2 µg/mL (≈ 0.132 µM)
N. gonorrhoeae WHO G
  MIC: 0.39 µg/mL (≈ 0.256 µM)
N. gonorrhoeae WHO K
  MIC: 0.78 µg/mL (≈ 0.513 µM)
N. gonorrhoeae MS11
  MIC: 0.78 µg/mL (≈ 0.513 µM)
N. gonorrhoeae FA1090 [6]
  MIC: 0.2 µg/mL (≈ 0.132 µM)
N. gonorrhoeae MS11ΔIgAP
  MIC: 0.39 µg/mL (≈ 0.256 µM)
N. gonorrhoeae WHO O
  MIC: 0.39 µg/mL (≈ 0.256 µM)
N. gonorrhoeae MS11ΔmtrE
  MIC: 0.2 µg/mL (≈ 0.132 µM)

## CCCCCCCC(=O)N[C@@H](C(=O)N[C@H](CCN)C(=O)NCC(=O)N[C@H](CO)C(=O)N[C@H](Cc1c[nH]c2ccccc12)C(=O)N[C@@H](CO)C(=O)N[C@@H](CCN)C(=O)N[C@H](CCN)C(=O)N[C@@H](Cc1ccccc1)C(=O)N[C@@H](CCC(=O)O)C(=O)N[C@H](C(=O)N[C@@H](C(=O)N[C@@H](C)C(=O)NCCOCCOCC(=O)N[C@@H](CC(C)C)C(=O)N1CCC[C@H]1C(=O)N[C@@H](CCCNC(=N)N)C(=O)N1CCC[C@H]1C(=O)N1CCC[C@H]1C(=O)N[C@@H](C)C(=O)N1CCC[C@H]1C(=O)N[C@H](C(=O)N[C@@H](Cc1ccccc1)C(=O)N[C@@H](CO)C(=O)NCCOCCOCC(=O)N[C@@H](CS)C(N)=O)C(C)C)[C@@H](C)CC)C(C)C)C(C)C [cl-Oct-TriA1] (Octanoyl-[dV][dDab]G[dS][dW]S[Dab][dDab]FEV[d(aIle)]A[AEEA]LPRPPAPVFS[AEEA]C-NH2)
HK-2 cells [2]
  LDH (EC50) 4 h: >400 µg/mL
HK-2 cells [3]
  MTT (EC50) 4 h: 315.43 µg/mL

## O=C(O)c1cn(C2CC2)c2cc(N3CCNCC3)c(F)cc2c1=O [ciprofloxacin, reference compound]
N. gonorrhoeae FA1090 [7]; FA1090, 24 h, read-out: MIC at start of resistance evolution
  MIC: 0.002 µg/mL (≈ 0.00604 µM)
N. gonorrhoeae FA1090 [7]; FA1090, read-out: MIC after 35 d of resistance evolution
  MIC: 0.26 µg/mL (≈ 0.785 µM)
